Measured values from patent publication US20130295669A1, “METHOD FOR CONTROLLING BINDING OF CELLS TO A SUBSTRATE” (LONZA COLOGNE GMBH, priority 2010, published 2013).

What was measured:
[1] = tested on: mesenchymal stem cells from bone marrow (BM-MSC); experiment: Dislocation of BM-MSCs with Trypsin/EDTA after pretreatment, and reseeding; format: cell-based; conditions: for effect against cell dislocation and clumping: 3 min Trypsin/EDTA; for cell proliferation (yield and viability) after reseeding: pretreatment before dislocation, 7 days in drug-free medium, 5000 cells/cm^2
Procedure: Subconfluent BM-MSCs were subjected to 4 h pretreatment (10 μM Blebbistatin or 10 μM Y-27632 vs control) and subsequent incubation for 3 min. with Trypsin/EDTA at 37° C. Cell counts were determined after dislocation of the cells from the surface of tissue culture flasks without specific coating (A). […] Dislocated cells are devoid of aggregates in drug-treated condition. […] Cells were reseeded (all conditions at same density: 5000 cells/cm^2) and cultured for additional 7 days in drug-free medium. After 7 days cell counts (B) and viability (C) were determined. […] An increase in cell proliferation (yield and viability) by Blebbistatin and less for Y-27632 treatment before dislocation in the subsequent drug-free passage (day 7) was also observed.

[2] = tested on: mesenchymal stem cells from bone marrow (BM-MSCs); experiment: Cell aggregation of BM-MSCs in suspension (deep-well) culture; format: cell-based; conditions: for cell clustering: suspension deep-well
Procedure: (§1) Cell aggregation (A), cell survival (B) and apoptosis (C) were assayed in presence or absence of different Blebbistatin concentrations up to seven days. ROCK inhibitor (Y-27532) was used as a positive control. Cells were added to deep-wells not supporting adherent growth. Different concentrations of Blebbistatin and Y-27632 were tested in suspension (deep-well, 130 RPM) and adhesion (six-well) culture on BM-MSCs (media containing 10% FBS).
(§2) B: Live cells were quantified by FACS using dye-exclusion assay (propidium iodide). […] The survival-enhancing effect of Blebbistatin appeared concentration dependent peaking at 10 μM and decreasing at both higher and lower concentrations of Blebbistatin. C: Apoptotic cells were quantified by FACS using Annexin V-assay (propidium iodide).

[3] = tested on: mesenchymal stem cells from bone marrow (BM-MSCs); format: cell-based
Procedure: as §1, with “FBS). […] B: Live cells were quantified by FACS using dye-exclusion assay (propidium iodide). […] The survival-enhancing effect of Blebbistatin appeared concentration dependent peaking at 10 μM and decreasing at both higher and lower concentrations of Blebbistatin. C: Apoptotic cells were quantified by FACS using Annexin V-assay (propidium iodide).” for “FBS).”

[4] = tested on: mesenchymal stem cells from bone marrow (BM-MSCs); experiment: Apoptosis by Annexin V staining and FACS; format: cell-based
Procedure: as §1, §2

BM-MSC cultures = experiment: Cell cycle profiles (G1/G0 and G2) by propidium iodide FACS with continuous BrdU incorporation; format: cell-based; conditions: suspension/shaking culture in deep-wells, up to 3 days
Description: BM-MSC cultures were allowed to incorporate BrdU continuously and were sampled at different points of time (up to 3 days). Most cells are in G1/G0 phase (very dense culture), but there are also some G2-cells present. Absence of >4N cells (no multinucleated cells detected).
BM-MSC cultures were allowed to incorporate BrdU continuously and were sampled at different points of time (up to 3 days). Most cells are in G1/G0 phase (very dense culture), but there are also G2-cells present. Absence of >4N cells (no multinucleated cells detected). During continuous treatment in adherent T-flasks culture (G2/M) slight slowing down of the cell cycle was observed.

BM-MSCs = experiment: Attachment of BM-MSCs to hydrophobic side of Lumox-biofoil bag; format: cell-based; conditions: 10 μM, 48 h treatment
Procedure: Colony and attached cells observed after 48 h treatment with <0.1% DMSO are shown. No significant attachment of cells could be observed.
Colony and attached cells observed after 48 h treatment with 10 μM Blebbistatin are shown. […] Thus, if compared to FIG. 6 (control), treatment with Blebbistatin results in an increased affinity of BM-MSCs to this surface.

[5] = tested on: mesenchymal stem cells from bone marrow (BM-MSC); experiment: BM-MSCs seeded on microcarriers for suspension culture; format: cell-based
Procedure: BM-MSCs were seeded on microcarriers for suspension culture in presence or absence of 10 μM Blebbistatin and allowed to proliferate for 6 days. After 24 h incubation without agitation the culture was sampled to determine cell count, Glucose consumption and cell seeding. After 5 additional days of incubation with agitation Glucose consumption (A), Lactate production (B), cell count (C) and cell seeding on carriers (DAPI-stain of cells on carrier, FIG. 11) were determined again. […] Accordingly, Blebbistatin has a protective effect on the cells resulting in enhanced proliferation after 6 days growth on microcarriers.

[6] = tested on: human Embryonic Stem Cells (hESCs); experiment: Post-split attachment of hESCs on Matrigel-coated dishes in X-VIVO medium; format: cell-based
Procedure: The cells were cultured in defined X-VIVO medium containing no serum or animal-derived components on culture dishes coated with Matrigel®. A: No treatment with inhibitor (control), B: Transient treatment with 10 μM Blebbistatin (left micrograph: 4-fold magnification, right micrograph: 10-fold magnification), C: Culture 1 day after withdrawal of Blebbistatin. The post-split attachment of hESCs in X-VIVO has been low (A: 5-15%). When the culture was split (EDTA passage), the medium was supplemented with 10 μM of Blebbistatin. This increased the attachment of hESCs dramatically (B: 80-95%) compared to the post-split attachment of Blebbistatin-free hESC culture in X-VIVO. In fact, even the individualized hESCs attached very well. The media of the culture was replaced after 24 h with Blebbistatin-free X-VIVO to see how the cells stay attached and proliferate without Blebbistatin.

[7] = tested on: mesenchymal stem cells from bone marrow (BM-MSC); experiment: BM-MSC attachment and proliferation on repellent Teflon foil; format: cell-based; conditions: 10 μM
Procedure: MSCs were cultured with 10 μM Bb for 4 days on repellent Teflon® foil and the cells attached to the foil were counted on day 4. Bars represent the number of cells per well. Control cultures: BM-MSCs in DMSO or PBS without inhibitor. […] Thus, BM-MSCs attach and proliferate on Teflon® foil.
MSCs were cultured with 10 μM Bb on repellent Teflon® foil until confluency was reached, the cells attached to the foil were counted on day 6 after cell seeding. Bars represent the number of cells per well. Control cultures: BM-MSCs in DMSO or PBS without inhibitor.

[8] = tested on: stem cells from cord blood (CB-USSC); experiment: CB-USSC attachment and proliferation on repellent Teflon foil; format: cell-based; conditions: 10 μM
Procedure: USSCs were cultured with 10 μM Bb for 4 days on repellent Teflon® foil and the cells attached to the foil were counted on day 4. Bars represent the number of cells per well. Control cultures: CB-USSCs in DMSO or PBS without inhibitor. […] Thus, CB-USSCs attach and proliferate on Teflon® foil.
USSCs were cultured with 10 μM Bb on repellent Teflon® foil until confluency was reached, the cells attached to the foil were counted on day 6 after cell seeding. Bars represent the number of cells per well. Control cultures: CB-USSCs in DMSO or PBS without inhibitor.
USSCs were cultured with 10 μM Bb on repellent Teflon® foil dish and counted on day 4 after cell seeding. Bars represent the number of cells per well. Control cultures: CB-USSCs in DMSO or PBS without inhibitor. […] USSC attachment and proliferation on Teflon® foil in serum-reduced (EGM2) media is enhanced by myosin inhibition.
USSCs were cultured with 10 μM Bb on repellent Teflon® foil dish and counted on day 4 after cell seeding. Bars represent the number of cells per well. Control cultures: CB-USSCs in DMSO or PBS without inhibitor.

[9] = tested on: stem cells from cord blood (CB-USSCs); experiment: CB-USSCs on PTFE vessel material; format: cell-based; conditions: 10 μM, 3 days on PTFE-vessel material
Procedure: USSCs were cultured with 10 μM Bb for 3 days on repellent PTFE-vessel material compared to control cultures.

[10] = tested on: human embryonal stem cells (hEST); experiment: Cryopreservation recovery of human embryonal stem cells; format: cell-based
Description: Usually only cell clusters can be cryopreserved, but not single ES cells.
Moreover, adding Blebbistatin before freezing is beneficial for cryopreserving single hESCs.

[11] = tested on: human pluripotent stem cells; conditions: clonal density and suspension conditions; cited from earlier work
[12] = deep well culture, up to seven days, overall statement

With `C[C@@H](N)[C@H]1CC[C@H](C(=O)Nc2ccncc2)CC1` [Y-27632] the “effect against cell dislocation and clumping” value ([1]; 10 μM, 4 h pretreatment) was “protective effects against cell dislocation and clumping” and the “cell proliferation (yield and viability) after reseeding” value [1] was “less”.

In the case of `Cc1ccc2c(c1)C(=O)C1(O)CCN(c3ccccc3)C1=N2` (stereo not drawn) [Blebbistatin], the cell clustering ([2]; 10 μM) was “prevents cell clustering”, the cell aggregation [2, 12] was “prevents or at least greatly reduces cell aggregation” and the cell clustering ([2]; less than 10 μM) was “formed a single aggregate”. The “optimum concentration for eliminating cell death” value [3] was 10 µM, the cell survival [3, 12] was “enables cell survival” and the “cell death rates (propidium iodide, FACS)” value ([3]; especially at 10-50 μM, adhesive/static or suspension/shaking) was “significantly eliminates cell death”. The “concentration at which survival-enhancing effect peaks” value ([3]; suspension, decreasing at higher and lower concentrations) was 10 µM, the “concentration of greatest anti-apoptotic effect” value [4] was 10 µM and the “apoptotic cells (Annexin V-assay)” value ([4]; 10 μM, versus DMSO, PBS controls) was “protected against apoptosis”. The anti-apoptotic effect ([4]; below 5 μM) was “merely a limited effect”, the apoptosis [4, 12] was “decreases apoptosis” and the “cell death in suspension culture (AnnexinV staining)” value ([4]; suspension/shaking conditions) was “eliminates cell death in suspension culture”. For the same compound, the “anti-apoptotic effect relative to Y-27632” value ([4]; various inhibitor concentrations) was “comparable or stronger than that of Y-27632”, the “effect on cell cycle” value (BM-MSC cultures) was “no significant effect” and the “cells attached to hydrophobic surface” value (BM-MSCs) was “A significant number of cells is attached”. For the same compound, the “effect against cell dislocation and clumping” value ([1]; 10 μM, 4 h pretreatment) was “protective effects against cell dislocation and clumping”, the “cell counts dislocated from tissue culture flasks” value ([1]; 10 μM, 4 h pretreatment, 3 min Trypsin/EDTA at 37° C.) was “Fewer cells are dislocated” and the “cell proliferation (yield and viability) after reseeding” value [1] was “enhanced proliferation and viability”. For the same compound, the “cell seeding on microcarriers” value ([5]; 10 μM, after 24 h without agitation) was “markedly increased”, the Glucose consumption ([5]; 10 μM, after 6 days) was “no effect” and the Lactate production ([5]; 10 μM, after 6 days) was “no effect”. For the same compound, the cell number ([5]; 10 μM, after 6 days on microcarriers) was “significantly increased”, the “cells adhering to microcarriers (DAPI-stain micrographs)” value ([5]; after 6 days of incubation) was “much more cells adhere to the microcarriers” and the “post-split attachment of hESCs” value ([6]; 10 μM, EDTA passage, X-VIVO medium, Matrigel) was 80-95%. For the same compound, the “attachment and proliferation after withdrawal of Blebbistatin” value ([6]; medium replaced after 24 h, 1 day after withdrawal) was “no significant changes could be observed”, the “cell yield (cells attached to foil per well)” value ([7]; day 4) was “significant increase in cell yield” and the “confluency on Teflon foil” value ([7]; day 6) was “do not form a completely confluent layer”. The “cell yield (cells attached to foil per well)” value ([7]; day 6 after cell seeding) was “No differences in cell yield”, the “cell yield (cells attached to foil per well)” value ([8]; day 4) was “highly significant increase in cell yield” and the “proliferation (cells per well)” value ([8]; day 4, low serum EGM2+Dex-media (3% serum)) was “significantly enhanced proliferation”. For the same compound, the “cell yield (cells per well)” value ([8]; day 4, serum-free MSCGM-CD medium) was “No apparent increase in cell yield”, the “confluency on Teflon foil” value ([8]; day 6) was “form confluent layers” and the “cell yield (cells attached to foil per well)” value ([8]; day 6 after cell seeding) was “significant increase in cell yield”. For the same compound, the “cell spreading and aggregate formation” value [9] was “Markedly enhanced cell spreading but no aggregate formation”, the “cryopreservation recovery of single hESCs” value [10] was “increases the cryopreservation recovery of single hESCs to the comparable level of the recovery of hESC clusters” and the “effect of adding before freezing on cryopreserving single hESCs” value ([10]; added before freezing) was “beneficial”. For the same compound, the “survival rate of human pluripotent stem cells” value [11] was “increases the survival rate”.
